Article PMC10307885, “A Phase 1/2 trial of SRA737 (a Chk1 inhibitor) administered orally in patients with advanced cancer” (British Journal of Cancer, 2023)
Values joined by “and” are separate entries in the source; they are usually repeats but may differ in a detail not shown here. Equal values may be shown once. “Also recorded” adds a separate entry of the source. Read-outs that look alike come from different tables or passages of the source.

Columns and labels:
[1] = Preliminary in vitro solubility studies of SRA737 citrate drug product; assay type: physicochemical; conditions: over the physiological range
[2] = test system: advanced solid tumours (CRC, HGSOC, NSCLC, mCRPC, HNSCC); assay: Tumour response by RECIST 1.1; assay type: in vivo, human
Method: Radiologic tumour assessments were carried out every 8 weeks, and clinical evaluations and serum tumour markers assessed every 4 weeks. Tumours were assessed using the Response Evaluation Criteria in Solid Tumors version 1.1 (RECIST 1.1). Clinical response data were summarized in cohorts defined by tumour type (CRC, HGSOC, NSCLC, mCRPC, HNSCC, or other disease). The Safety Evaluable population included all patients who received at least one dose of SRA737. The Response Evaluable population included patients who had measurable disease at baseline, received at least 75% of planned SRA737 doses in Cycle 1 and had at least one post-baseline disease assessment or discontinued treatment due to disease progression, adverse event, or death.

[3] = test system: patients with advanced cancer; conditions: in combination with low-dose gemcitabine; anogenital, cervical, high-grade serous ovarian, rectal and small cell lung cancer; cited from earlier work
[4] = Plasma SRA737 pharmacokinetics (LC-MS assay, non-compartmental methods); assay type: in vivo, human; conditions: for Cmax / AUC(0-t) / Tmax / Vd/F / half-life: human, oral; for AUC(0-t): read-out: AUC0-24; for Tmax / Vd/F / half-life: plasma
Method: Serial sampling of blood for PK assessment was conducted before and after dosing with single-agent SRA737 (9 time points over 48 h) on Day −7 to Day −4 and on Cycle 1 Day 22; in addition, samples were drawn pre-dose on Days 1, 8, and 15 of Cycle 1, and pre-dose on Day 1 of each subsequent cycle. Plasma SRA737 concentrations were quantified using a fully validated liquid chromatography-mass spectrometry assay with a lower limit of quantitation of 5 ng/ml as previously described.
(§1) Safety and response variables were summarized using descriptive statistics and PK parameters were determined using non-compartmental methods. A concentration-effect model was used to evaluate the relationship between plasma SRA737 concentrations and the mean change from baseline in QT interval corrected for heart rate using Fridericia’s formula (QTcF) in time-matched ECG measurements and PK samples collected on Day −7 to Day −4 and during Cycle 1.

[5] = test system: Chk1; set-up: method as in printed; conditions: previously shown in preclinical experiments; ref not given; cited from earlier work
[6] = test system: patients with advanced solid tumours; assay: Cardiac safety: ECG (QTcF), troponin, echocardiogram; assay type: in vivo, human
Method: Cardiac assessments included centrally-assessed serial ECGs in Cycle 1 used for evaluation of QTc. In addition, locally-read ECGs for safety assessment were also available for central assessment where clinically indicated. Troponin T or I assessments and echocardiogram were locally assessed.
as §1

[7] = 600 mg, repeat doses, N 7, plasma, mean ± standard deviation
[8] = 800 mg, repeat doses, N 31, plasma, mean ± standard deviation
[9] = 1000 mg, repeat doses, N 16, plasma, mean ± standard deviation
[10] = single SRA737 dose, at or above the dose level of 300 mg QD

N#Cc1cnc(Nc2cc(NC[C@H]3CNCCO3)c(C(F)(F)F)cn2)cn1 [SRA737, (R)-5-((4-((morpholin-2-ylmethyl)amino)-5-(trifluoromethyl)pyridin-2-yl)amino)pyr azine-2-carbonitrile]
pH-dependent solubility [1]: minimal to moderate pH-dependent solubility
disease control rate (at least four cycles with at least stable disease as best response) ([2]; HGSOC, 11/26): 42.3%
disease control rate (at least four cycles with at least stable disease as best response) ([2]; HNSCC, 3/4): 75.0%
disease control rate (at least four cycles with at least stable disease as best response) ([2]; NSCLC, 3/8): 37.5%
patients with reduction or no increase in sum of RECIST target tumour diameters and/or stable disease for 4 or more cycles ([2]; in vivo): 29 patients
reductions in tumour size ([2]; in vivo): up to 29 % reduction
disease control rate (at least four cycles with at least stable disease as best response) ([2]; mCRPC, 8/13): 61.5%
RECIST responses (complete or partial) ([2]; monotherapy, expansion cohort patients with predefined genetic mutations): no complete or partial RECIST responses; also recorded: no partial or complete RECIST responses
RECIST tumour responses [3]: RECIST partial tumour responses were observed
Systemic exposure (Cmax and AUC) between dose levels ([4]; 600 mg vs 1000 mg dose levels): tended to be comparable
CL/F [4, 7]: 26.9 ± 2.85 L/h
Cmin [4, 7]: 230 ± 123 ng/mL
Exposure relative to minimum effective concentration extrapolated from preclinical models ([4]; 800 mg QD and 1000 mg QD): exceeded the minimum effective concentration
Cmin ([4]; 800 mg QD, repeat doses, N 31, plasma, mean ± standard deviation): 312 ng/mL and 312 ± 166 ng/mL
CL/F [4, 8]: 38.0 ± 22.2 L/h
CL/F [4, 9]: 39.7 ± 9.20 L/h
Cmin [4, 9]: 499 ± 185 ng/mL
Cmax [4, 7]: 2470 ± 328 ng/mL
AUC(0-t) [4, 7]: 22100 ± 2450 ng·h/mL
Cmax [4, 8]: 2480 ± 679 ng/mL
AUC(0-t) [4, 8]: 24700 ± 8580 ng·h/mL
Cmax [4, 9]: 2490 ± 666 ng/mL
AUC(0-t) [4, 9]: 27200 ± 9210 ng·h/mL
Tmax ([4]; 600 mg, repeat doses on C1D8, C1D22, C2D8, C2D15 or C2D22, N 7, plasma, median (minimum-maximum), read-out: tmax): 2 h
Vd/F ([4]; 600 mg, repeat doses, N 7, plasma, mean ± standard deviation, read-out: Vd/F): 320 ± 61.1 L
half-life ([4]; 600 mg, repeat doses, N 7, plasma, mean ± standard deviation, read-out: t½ (converted)): 8.22 ± 1.27 h
Tmax ([4]; 800 mg, repeat doses on C1D8, C1D22, C2D8, C2D15 or C2D22, N 31, plasma, median (minimum-maximum), read-out: tmax): 2 h
Vd/F ([4]; 800 mg, repeat doses, N 31, plasma, mean ± standard deviation, read-out: Vd/F): 454 ± 299 L
half-life ([4]; 800 mg, repeat doses, N 31, plasma, mean ± standard deviation, read-out: t½ (converted)): 8.25 ± 1.17 h
Tmax ([4]; 1000 mg, repeat doses on C1D8, C1D22, C2D8, C2D15 or C2D22, N 16, plasma, median (minimum-maximum), read-out: tmax): 2 h
Vd/F ([4]; 1000 mg, repeat doses, N 16, plasma, mean ± standard deviation, read-out: Vd/F): 477 ± 87 L
half-life ([4]; 1000 mg, repeat doses, N 16, plasma, mean ± standard deviation, read-out: t½ (converted)): 8.45 ± 1.06 h
half-life ([4]; 1000 mg, repeated doses of 600, 800 and 1000 mg QD, read-out: Estimated elimination half-life (t½) values, range): 6.23 to 10.4 h
Tmax ([4]; 1000 mg, repeated doses of 600, 800 and 1000 mg QD, read-out: Tmax, generally occurred): 2 to 4 h
Tmax ([4]; 1000 mg, repeated doses of 600, 800 and 1000 mg QD, read-out: Tmax, ranged): 1 to 6 h
Vd/F ([4]; 1000 mg, repeated doses of 600, 800 and 1000 mg QD, read-out: individual apparent volume of distribution (Vd/F) values, range): 215 to 1590 L
time plasma concentration of 100 nM (37.9 ng/mL) was achieved, all patients [4, 10]: at least 24 h
time plasma concentration of 100 nM (37.9 ng/mL) was achieved, majority of patients [4, 10]: up to 48 h
minimally effective concentration to inhibit Chk1 [5]: 100 nM and 37.9 ng/mL
largest LS mean ΔQTcF ([6]; 800 mg QD, 2 h post dose on Cycle 1 Day 22, 90% confidence interval 11.53 to 22.13): 16.8 ms
cases of acute coronary syndrome (cardiac SAE) ([6]; 800 mg SRA737): 1 case
cases of asymptomatic myocardial infarction (cardiac SAE) ([6]; 800 mg SRA737): 1 case
cases of asymptomatic QT prolongation (cardiac SAE) ([6]; 1000 mg SRA737): 1 case
cases of cardiomyopathy (cardiac SAE) ([6]; 1000 mg SRA737): 1 case
cardiac serious adverse events evaluated to be possibly related to SRA737 ([6]; all doses): Four
subjects with treatment-emergent QTcF values >500 ms or ΔQTcF of >60 ms ([6]; central ECG monitoring): no individual subjects
patients with > 10% absolute drop from baseline resulting in abnormal left ventricular ejection fraction ([6]; echocardiogram data, 83 evaluable patients, other than cardiomyopathy and myocardial infarction cases): no additional patients
drop of left ventricular ejection fraction, one patient ([6]; echocardiogram performed outside the study): from 65 to 20–25%
effects on heart rate, PR interval, or QRS duration ([6]; studied doses): no clinically relevant effects
proarrhythmic potential ([6]; therapeutic doses): no indication that SRA737 is proarrhythmic
